Like-named read-outs stand apart in the source and are kept apart here.
Experiments:
[1] = tested on: mice transplanted with myeloma cells ARH-77; assay: Lumbar bone mineral density decrease test in multiple myeloma model animals; assay type: in vivo
Method: Similar to Example 1, mice suffering from paralysis in hind limbs were selected 3 weeks after the transplantation of myeloma cells. Then an aqueous solution of the compound A monohydrate (3 mg/kg) (compound A group) and the solvent alone (solvent group) were orally administered once a day for 6 days repeatedly. On the next day of the completion of the administration, a 10% formalin solution was refluxed from the left cardiac ventricle under anesthesia with pentobarbital and the lumber vertebrae was taken out. The bone mineral density in the bone tissue was measured by the DXA method. As Example 1, the normal mice (sham-operated group) were also subjected to the measurement of the bone mineral density.
Two weeks after the transplantation of the myeloma cells, the compound A was orally administered for 14 days in doses of 0.03, 0.3 and 3 mg/kg. Then the bone mineral density was measured as in the above (1) but selecting animals suffering from paralysis in hind limbs during the administration period.

[2] = tested on: patients with multiple myeloma; details: for systemic bone salt mass, change ratio to the data before the administration: 5 patients
[3] = tested on: patient with multiple myeloma; assay: Clinical test 1 (multiple myeloma and bone lesions, one patient); assay type: in vivo, human; details: for M protein (IgD): blood
[4] = tested on: human myeloma cells ARH-77; assay: Myeloma cell proliferation inhibitory test; assay type: cell-based
Method: A 5×10^4 cells/ml cell dilution of human myeloma cells […], which had been incubated in a culture flask, was prepared by using an RPMI1640 medium (containing 10% of EBS), pipetted in 1 ml portions into a 24-well plate and then incubated in a CO2 incubator at 37° C. After 6 hours, 100 μl portions of the aqueous solution of the compound A were added to give final concentrations of 0.3 to 1000 μM (three-fold serial, duplicate samples). After incubating in the CO2 incubator at 37° C. for 4 days, the viable cells were counted with the use of a Cell Counting Kit (Dojin Kagaku). By referring the value of the control prepared by adding PBS as to the cell proliferation inhibitory ratio of […], the inhibitory ratios were calculated.

[5] = tested on: mice transplanted with myeloma cells ARH-77; assay: Bone resorption inhibition test in multiple myeloma model animals (urinary deoxypyridinoline); assay type: in vivo, C.B-17/lcr-scid Jcl mice; details: 0.1 mg/kg intravenous once; urine on day 4 after administration; mice with paralysis in hind limbs; vs solvent group
Method: On the next day, 10^6 cells/mouse of myeloma cells ARH-77 were transplanted into the left cardiac ventricle of each animal under anesthesia with pentobarbital. […] On the day 4 after the administration, a physiological saline load (30 ml/kg po) was burdened to these mice and the urine was collected after 6 hours. Since the mice suffering from paralysis in hind limbs could hardly urinate, such an animal was subjected to abdominal section and the urine was directly collected from the bladder. Normal animals (sham-operated group), into the left cardiac ventricle of which PBS (0.1 ml/animal) was injected as a substitute for the myeloma cells, were treated in the same manner. The urinary deoxypyridinoline (Dpyr) level was measured by using a [sequence]-D kit (Amersham) and corrected with the urinary creatinine level.

[6] = tested on: murine model of myeloma; details: cited from earlier work
[7] = tested on: patients with multiple myeloma; details: 30 mg/day oral; cited from earlier work
[8] = tested on: patients; details: intravenous 90 mg/4 weeks, cited from earlier work
[9] = 6 mg oral once a day, after 24 weeks
[10] = 3 mg oral once a day, after 8 weeks

## O=P(O)(O)C(O)(Cc1cnc2ccccn12)P(=O)(O)O [compound A, 1-hydroxy-2-(imidazo[1,2-a]pyridin-3-yl)ethane-1,1-bisphosphonic acid]
[1]; 3 mg/kg oral once a day for 6 days, DXA method, mice with paralysis in hind limbs
  bone mineral density of lumbar vertebrae: 24.7 ± 0.9 mg/cm^2.
[1]; oral administration (6 days 3 mg/kg; 14 days 0.03, 0.3, 3 mg/kg)
  lumbar bone mineral density compared with solvent group: higher bone mineral density than the solvent group
[2]; 6 mg oral once a day for 24 weeks, 6 patients
  side effects related to the compound: No side effect
[2]; 6 mg oral once a day, after 12 weeks
  systemic bone salt mass, change ratio to the data before the administration: 0.61%
[2]; [9]
  narcotic score (analgesic type × administration frequency): 0.60±1.342
  systemic bone salt mass, change ratio to the data before the administration: 1.18%
[2]; 6 mg oral once a day, before vs after 24 weeks
  EORTC questionnaire on QOL: improvement was observed in pain, fatigue, shortness of breath, inappetence, constipation, economic conditions
[2]; 6 mg oral once a day, one of the patients
  bone lesions in bone radiographs: obvious amelioration in bone lesions
[2]; before the administration
  narcotic score (analgesic type × administration frequency): 1.67±3.615
[3]; [10]
  Dpyr level relative to level before the administration: about 60%
  M protein (IgD): 7.7 mg/dL
[3]; 3 mg oral once a day, after 2 weeks
  M protein (IgD): 11.6 mg/dL
[3]; 3 mg oral once a day, after 4 weeks
  M protein (IgD): 9.8 mg/dL
[3]; 3 mg oral once a day, after 20 weeks
  M protein (IgD): 5.9 mg/dL
[3]; before administration
  M protein (IgD): 25.8 mg/dL
[4]; 100 μM, 4 days incubation, ARH-77
  cell proliferation inhibitory ratio: 84.2%
[4]; 0.3 to 1000 μM, 4 days
  inhibition of ARH-77 cell proliferation: dose-dependent manner
[5]
  inhibition of the increase in urinary Dpyr level (bone resorption marker): significantly inhibited

## O=P(O)(O)C(O)(Cc1cccnc1)P(=O)(O)O [risedronate]
[6]
  bone destruction: clear reduction in bone destruction
  effect on tumor growth / tumor burden: no effect on tumor burden
[5]
  inhibition of the increase in urinary Dpyr level (bone resorption marker): no significant inhibition
[7]
  bone mineral density: elevated bone mineral density
  bone resorption: suppressed bone resorption

## NCCC(O)(P(=O)(O)O)P(=O)(O)O [pamidronate]
[8]; after 4 weeks
  Dpyr level relative to level before the administration: exceeded 80%
[8]; week 2
  Dpyr level relative to level before the administration: about 60%
[6]
  cytotoxic effect within the bone marrow: evidence of a cytotoxic effect within the bone marrow
  effect on tumor growth / tumor burden: no effect on tumor growth was demonstrated
[5]
  inhibition of the increase in urinary Dpyr level (bone resorption marker): no significant inhibition

From US6987100B2, “Pharmaceutical compositions for treating bone lesions in multiple myeloma” (Astellas Pharm Inc., priority 1998, dated 2006)
